Laboratory results as given in US20240277716A1, “Suppressive T Cell Populations and Methods of Cancer Immunotherapy” (La Jolla Institute for Immunology, priority 2021, published 2024).

Columns and labels:
Type in all cases: in vivo, mouse
[1] = tested on: B16F10-OVA melanoma cells; experiment: B16F10-OVA melanoma model, PI-3065 in diet: tumor volume and flow cytometry
Description: (§1) Tumor experiments. Mice were inoculated with 1-1.5×10^5 B16F10-OVA cells subcutaneously into the right flank. Mice were put on either a control diet or a diet containing a PI3Kδ inhibitor PI-3065 on day 1 or day 5 after tumor inoculation. Diets were prepared using powdered 2018 global rodent diet (Envigo) mixed with or without PI-3065 at 0.5 g/kg, which corresponds to a daily dose of 75 mg/kg as used previously. To pellet the food, 50% v/w water was added to the diet and dough thoroughly mixed, compressed, molded and dried before use. Tumor size was monitored every other day, and tumor harvested at indicated time points for analysis of tumor-infiltrating lymphocytes. Tumor size limit of 15 mm in diameter was not exceeded and volume was calculated as ½×D×d^2, where D is the major axis and d is the minor axis, as described previously^36.
(§2) Murine lymphocytes were isolated from the spleen by mechanical dispersion through a 70-μm cell strainer (Miltenyi) to generate single-cell suspensions. RBC lysis (Biolegend) was performed to remove red blood cells. Tumor samples were harvested and lymphocytes were isolated by dispersing the tumor tissue in 2 ml of PBS, followed by incubation of samples at 37° C. for 15 min with DNase I (Sigma) and Liberase DL (Roche). The suspension was then diluted with MACS buffer and passed through a 70-μm cell strainer to generate a single cell suspension. Colons were collected and rinsed in 1 mM dithiothreitol (DTT) to remove feces. Each colon was cut into 2-3 mm pieces and incubated 3 times in pre-digestion solution (HBSS containing 5% FBS and 2 mM EDTA) at 37° C. for 20 min under high rotation to remove epithelial cells. Then tissues were minced with scissors and incubated with digestion solution (HBSS containing 5% FBS, 100 μg/ml DNase I (Sigma) and 1 mg/ml collagenase (Sigma)) at 37° C. for 20 min under high rotation to get single cell solutions of lamina propria cells. Cells were prepared in staining buffer (PBS with 2% FBS and 2 mM EDTA), FcR blocked (clone 2.4G2, BD Biosciences) and stained with antibodies as indicated below for 30 min at 4° C.; secondary stains were done for selected markers. Samples were then sorted or fixed and intracellularly stained using a FoxP3 transcription factor kit according to manufacturer's instructions (eBioscience). Cell viability was determined using fixable viability dye (ThermoFisher). The following antibodies from BD Biosciences, Biolegend, Miltenyi or eBbioscience were used: anti-human PD-1 (EH12.1, 1:30), CD4 (OKT4, 1:30), CD137 (4B4-1, 1:30), GITR (108-17, 1:30), ICOS (C398.4A, 1:50), CD8A (SKI, 1:30), CD25 (M-A251, 1:20), CD3 (SK7, 1:30), CD127 (eBioRDR5, 1:50), CD45 (HI30, 1:30), CD14 (HCD14, 1:50), CD20 (2H7, 1:50); anti-mouse CD3 (145-2C11, 1:100), CD4 (RM4-5, 1:100), CD8 (53-6.7, 1:100), PD-1 (29F1.A12, 1:100), ST2 (U29-93, 1:100) Ki67 (B56, 1:40), TOX (REA473, 1:40), CD19 (6D5, 1:100), CD45 (30-F11, 1:100), FOXP3 (FJK-16s, 1:100), GZMB (QA16A02, 1:40). All samples were acquired on a BD FACS Fortessa or sorted on a BD FACS Fusion (both BD Biosciences) and analyzed using FlowJo 10.4.1 for subsequent single-cell RNA-seq analysis.

[2] = tested on: TREG cells from tumor, spleen and colonic tissue; experiment: Single-cell RNA-seq and flow cytometry of TREG and CD8+ T cells from tumor, spleen and colon of B16F10-OVA tumor-bearing mice
Description: as §2
Murine TREG cells. […] Reads were mapped with Cell Ranger followed by QC (github.com/vijaybioinfo/quality_control) and demultiplexed with bcl2fastq using default parameters. […] Differential expression was calculated with MAST^38 (v1.10.0) DESeq2 (v1.24.0) as previously described^37 and genes with an adjusted P-value <0.05 and a fold change of >log2 0.5 were defined as significant. […]

[3] = tested on: DSS-induced acute colitis; experiment: Dextran Sulfate Sodium (DSS)-induced acute colitis model
Description: Colitis experiments. […] Body weight of the mice was monitored. Colon tissues were collected for histological analysis at the endpoint. Whole colons were harvested from mice between cecum and rectum. Stools were flushed out of lumen with PBS. Then colons were fixed with zinc formalin for 5 minutes. Fixed colons were opened longitudinally, flattened, cut into 3 fragments and further fixed in zinc formalin for 48 hours in cassettes. After fixation, samples were transferred to 70% isopropanol for long term storage or H&E staining. Slides were scored blindly according to the following criteria: inflammation, area of infiltration (extent), crypt damage and edema. The colon was divided into 3 equal parts and the middle section was utilized for scoring. Four randomly selected areas were analyzed, and a histological score was determined.

[4] = tested on: colonic CD8+ and CD4+ T cells; experiment: scRNA sequencing of colonic CD8+ and CD4+ T cells under different PI3Kδi dosing regimens
Description: as §1
Murine colonic CD4+ and CD8+ T cells. Single-cell RNA-seq was performed by using the 10× platform. Mapping, aggregation, and QC was carried out as described above with the following thresholds: genes per cells range of [300, 4500], UMI content per cell […], percent of mitochondrial counts of <=10%, and a doublet score of <=0.3. Cluster of contaminant cells expressing epithelial, monocyte, and fibroblast markers was eliminated after the first round of clustering. The final number of cells were n=6415 CD4^+ T cells and n=2715 CD8^+ T cells.

## Fc1ccc2[nH]ccc2c1-c1nc(N2CCOCC2)c2sc(CN3CCN(CC4CC4)CC3)cc2n1 [PI-3065]
[1]; C57BL/6 wild-type mice, PI-3065 diet vs control
  tumor volume: significant decrease
[1]; PI3Kδi-treated vs placebo-treated mice
  TREG cells in tumor, spleen and colon: significant decrease
[1]; continuous dosing (for the duration of the experiment)
  tumor growth: decrease in tumor growth
[1]; continuous dosing only
  CD8+ T cell infiltration in colonic tissue: increased
  TREG cell levels in colonic tissue: decreased
[1]; high PD-1, increased proliferative and cytotoxic capacity
  intratumoral CD8+ T cells: significant increase
[1]; infrequent dosing (2 days on, 5 days off), 2 cycles
  tumor growth: decrease in tumor growth, albeit not significantly
[1]; intermittent dosing (4 days on, 3 days off), 2 cycles
  tumor growth: significant decrease in tumor growth
[1]; post-PI3Kδi
  TOX in CD8+ T cells: increased
[2]; PI3Kδi vs placebo treatment
  differentially expressed genes in colonic TREG cells: 869 genes
[2]; PI3Kδi-treated mice
  colonic TREG subsets (clusters 2 and 8): depleted
[2]; colonic, but not splenic tissue
  CD8+ T cells in colonic tissue: significant increase
[2]; protein level
  ratio of CD8+ T cells to ST2 TREG cells: substantially increased
[3]; 2.5% DSS from day 14-20, PI-3065 diet vs placebo
  body weight: swift reduction in body weight
[3]; PI3Kδ inhibitor-treated group, n=10
  deaths prior to experimental endpoint: one
[3]; PI-3065 diet plus 2.5% DSS
  effect on colitis: exacerbates colitis
[3]; inflammation, crypt damage, extent, vs placebo
  overall colitis score: higher overall colitis score
[4]; across dosing regimens
  innate-like CD8+ T cells in colon: dosing-dependent decrease
[4]; continuous dosing regimen
  TC17 and TH17 subsets and pertaining proliferating clusters, share of all cells: ~50%
[4]; other treatment conditions (intermittent, infrequent, control)
  TC17 and TH17 subsets and pertaining proliferating clusters: nearly completely absent
